Results taken from patent publication US11767313B2, “Compounds as nuclear transport modulators and uses thereof” (XWPHARMA LTD., priority 2018, dated 2023).
Like-named read-outs stand apart in the source and are kept apart here.

Assays:
[1] = test system: U87MG; assay: CellTiter-Glo cell proliferation assay, U87MG; format: cell-based, human; details: Homo sapiens, U-87 MG
Procedure: (§1) CellTiter-Glo® Luminescent Cell Viability assay (with Promega CellTiter 96® Luminescent CellTiter-Glo® kit) was used to study the proliferation inhibition by test compounds. Compounds were resuspended in DMSO to make a 25 mM stock suspension. Cells of cancer cell lines or normal tissues were seeded in 96-well plates at 1,500 to 5,000 cells/well overnight. Compounds were 2- or 3-fold diluted serially to obtain 10 concentrations. Then, the drugs were added to the cell wells by Bravo (Agilent) and incubated for 72 hours. The cells were lysed by adding CellTiter-Glo® Reagent (per manufacturer's instructions) and subsequently, the luminescence was read using EnVision® (PerkinElmer).
(§2) The percent of growth was calculated as follows. DMSO-treated cells were employed as vehicle control (High control, HC) and culture medium alone was employed as background (Low control, EC). % growth=100×(Lum sample−Lum EC)/(Lum HC−Lum EC). The ICso was calculated by concentration-response curve fitting using Graphpad Prism.
(§3) Hematological cancer cell lines tested included OCI-AML3, MV-4-11, KG-1, Kasumi-1, K562, THP-1; solid cancer cell lines tested included U87MG, U251, T98G, LN229, A172, H460, H2009, A549; normal cell lines tested included HCN2 and 3T3-L1. […] However, they were not toxic to in vitro cultured normal cells.

[2] = test system: K562; assay: CellTiter-Glo cell proliferation assay, K562; format: cell-based; details: Homo sapiens, 72 hours, Table 1, read-out: Growth inhibition (IC50)
Procedure: as §1, §2, §3

[3] = Pharmacokinetic profile summary; format: in vivo, mice or rats; details: for AUC / Cmax: po
Procedure: Blood was collected from mice (n=3, or 5) to contribute to the total of 10 time points (pre-dose, 5 min, 15 min, 30 min, 1 hour, 2 hours, 4 hours, 8 hours, 12 hours and 24 hours). At the designated time points, animals were anaesthetized under isoflurane, and approximately 110 μL of blood per time point was collected via retro-orbital puncture into pre-cooled K2EDTA tubes. Blood samples were put on wet ice and centrifuged (2000 g, 5 min at 4° C.) to obtain plasma within 30 minutes of sample collection. All samples were stored frozen at approximately −80° C. until analysis. Prior to analysis, samples were mixed with internal standard in acetonitrile, vortexed, centrifuged, and supernatant was injected for analysis. Concentration of compounds in plasma was determined using LC-MS-MS instrumentation (API 4000, Triple Quadrupole LC/MS/MS Mass Spectrometer). AUC values were calculated using Phoenix Win Nonlin 6.3 software package, PO-Noncompartmental model 200 (extravascular input).
Following collection, brain tissue was rinsed with cold saline, dried on filter paper, weighed and snap-frozen by placing on dry ice. All samples were stored frozen at approximately −80° C. until analysis. At the time of analysis, brain tissue was homogenized (homogenizing solution PBS, pH 7.4), mixed with internal standard in acetonitrile, vortexed, centrifuged, and supernatant was injected for analysis. Concentration of compounds in plasma was determined using LC-MS-MS instrumentation (API 4000, Triple Quadrupole LC/MS/MS Mass Spectrometer). Plasma samples were treated with the identical method (except homogenization step) and the concentration of compound in each matrix was calculated based on generated standard curves.
The pharmacokinetic profile of test compounds in mice or rats was determined from several test compounds was determined using the methods described in Example 22.

[4] = molecular target: XPO1 (Homo sapiens, UniProt O14980); assay: REV-GFP translocation assay in U2OS cells; format: cell-based; design: endogenous in cells; host or cells: U2OS cells stably expressing REV-GFP (clones from HD Biosciences)
Procedure: LTD in China, and cells were cultured with growth medium. […] The highest Leptomycin B (LMB) concentration was set to 50 nM and serially diluted as the positive control, while the highest concentrations of other compounds were set to 10 μM. The cells treated with various drugs or DMSO, were incubated at 37° C. and 5% CO2 for 1 h. Then, cells were fixed with 4% formaldehyde for 15 min at room temperature. The cells were washed and stained with 100 μL Hoechst 33342 working solution for 10 min at room temperature in dark, after which the cell fluorescence was imaged with the High-Content Imaging System, ImageXpress® (Molecular Devices) using the 20× objective. The filters were set for Hoechst (350/461 nm) and GFP/FITC (488/509 nm) (wavelength for excitation and emission maxima). The % effect of REV nuclear translocation was calculated with the following formula: % effect=([…]- signals from testing compounds; ILMB-signals of 50 nM LMB group; ICTRL-signals of vehicle control group.

[5] = test system: KG1; assay: CellTiter-Glo cell proliferation assay, KG1; format: cell-based; details: Homo sapiens, KG-1, 72 hours, Table 1, read-out: Growth inhibition (IC50)
Procedure: as §1, §2, §3

[6] = test system: A549; assay: CellTiter-Glo cell proliferation assay, A549; format: cell-based; details: Homo sapiens, 72 hours, Table 1, read-out: Growth inhibition (IC50)
Procedure: as §1, §2, §3

[7] = test system: Kasumi-1; assay: CellTiter-Glo cell proliferation assay, Kasumi-1; format: cell-based; details: Homo sapiens, 72 hours, Table 1, read-out: Growth inhibition (IC50)
Procedure: as §1, §2, §3

[8] = test system: OCI-AML3; assay: CellTiter-Glo cell proliferation assay, OCI-AML3; format: cell-based; details: Homo sapiens, OCI-AML-3, 72 hours, Table 1, read-out: Growth inhibition (IC50)
Procedure: as §1, §2, §3

[9] = test system: MV411; assay: CellTiter-Glo cell proliferation assay, MV411; format: cell-based; details: Homo sapiens, MV4-11, 72 hours, Table 1, read-out: Growth inhibition (IC50)
Procedure: as §1, §2, §3

[10] = test system: H2009; assay: CellTiter-Glo cell proliferation assay, H2009; format: cell-based; details: Homo sapiens, NCI-H2009, 72 hours, Table 1, read-out: Growth inhibition (IC50)
Procedure: as §1, §2, §3

[11] = test system: H460; assay: CellTiter-Glo cell proliferation assay, H460; format: cell-based; details: Homo sapiens, NCI-H460, 72 hours, Table 1, read-out: Growth inhibition (IC50)
Procedure: as §1, §2, §3

[12] = test system: THP-1; assay: CellTiter-Glo cell proliferation assay, THP-1; format: cell-based; details: Homo sapiens, 72 hours, Table 1, read-out: Growth inhibition (IC50)
Procedure: as §1, §2, §3

[13] = test system: T98G; assay: CellTiter-Glo cell proliferation assay, T98G; format: cell-based; details: Homo sapiens, T98G; Table 11; read-out: Absolute IC50 (μM) T98G
Procedure: as §1, §2, §3

[14] = test system: C8-B4; assay: Cytotoxicity, cell proliferation assay, C8-B4; format: cell-based; details: Table 8
Procedure: as §1, §2
(§4) The cytotoxicity of test compounds in brain (HCN2), colon cancer (HCT116) and normal colon cell (C8-B4) lines was determined using the cell proliferation assay as described in Example 19.

[15] = test system: Ki67; assay: PD effects by IHC in U87MG-luc orthotopic model, Ki67; format: in vivo, mice; details: orally three times a week for 2 weeks; vs vehicle control
Procedure: (§5) Based on the bioluminescent signal of tumor, mice were randomly assigned to respective groups using a computer-generated randomization procedure, which included vehicle and compound III-treated groups, respectively, with 5 animals per group. Compound III (20 mg/kg) was given orally 3 times a week (on Day 1, 3, 5) for 2 weeks. Animals for IHC study were euthanized at 6 hours after the last dose and perfused with normal saline followed by fixation with 4% paraformaldehyde. Entire brains containing tumors were collected and kept in fixative for 24 hours before proceeding for paraffin block.

[16] = test system: U251; assay: CellTiter-Glo cell proliferation assay, U251; format: cell-based; details: Homo sapiens, U-251; Table 11; read-out: Absolute IC50 (μM) U251
Procedure: as §1, §2, §3

[17] = in vivo; details: female, BALB/c Nude, mouse
[18] = test system: U87MG cells; assay: Capase-Glo 317 apoptosis assay; format: cell-based; details: Homo sapiens, U-87 MG, 72 hours
Procedure: A Capase-Glo® 317 assay was used to determine the apoptosis activity of test compounds in U87MG cells.
Compounds were dissolved in 25 mM DMSO stock solution and serially diluted. DMSO was used as the vehicle control (high control, HC) and culture medium was used as the background (low control LC). The test compounds were applied to plates and spun at 25° C. at 1,000 RPM for 1 min and shaken on a plate shaker for 2 min. Samples (80 nL) of the compounds from the plates were transferred to 384-well cell culture plates using a liquid handler.
Cells were harvested and the cell numbers counted. 40 μL of the cell suspension with the adjusted density was added to 384-well cell culture pates. The final cell density is 1,000 cells/well. Cell culture medium only was used in the low control (LC) samples. The plates were covered with a lid and placed in a 5% CO2 incur at 37° C. for 72 hours.
After incubating for 72 hours, the plates were removed from the incubator and equilibrated at 25° C. for 15 minutes. CellTiter Glo® regen was incubated at 37° C. before the experiments. 40 μL of Capase-Glo® 317 was added into each well to be detected at a 1:1 ratio to culture medium. The plates were then placed at 25° C. for 30 min and read using an EnSpire® Plate Reader.
The % activity remaining was determined using the following formula: % Remaining Activity=[…]×(Lumsample−LumLC)/(LumHC−LUM LC), where HC is obtained from cells treated with 0.1% DMSO only, LC is obtained from culture medium only.

[19] = test system: 3T3-L1; assay: CellTiter-Glo cell proliferation assay, 3T3-L1 (normal); format: cell-based; details: Mus musculus, 3T3-L1; Table 6; read-out: 3T3-L1 IC50
Procedure: as §1, §2, §3

[20] = test system: HCN2; assay: CellTiter-Glo cell proliferation assay, HCN2 (normal brain); format: cell-based; details: for IC50: read-out: HCN2 IC50
Procedure: as §1, §2, §3

[21] = test system: A-172; assay: CellTiter-Glo cell viability assay, A-172; format: cell-based; details: Homo sapiens, Table 6
Procedure: as §1, §2
The inhibition activity of test compounds was determined in A-172, U87MG and 3T3-L1 cell lines.
A CellTiter-Glo® luminescent cell viability assay was performed s described in Example 1.

[22] = 25 mg/kg p.o., qod x 3 per week, two weeks; BALB/c Nude mice
[23] = test system: 3T3; assay: Cytotoxicity, cell proliferation assay, 3T3; format: cell-based; details: Mus musculus, NIH3T3; Table 9
Procedure: as §1, §2
The cytotoxicity of test compounds was also determined in glioblastoma (U87MG)), brain (HCN2) and 3T3 cell lines was determined using the cell proliferation assay as described in Example 19.

[24] = test system: HCT116; assay: Cytotoxicity, cell proliferation assay, HCT116 colon cancer; format: cell-based; details: Table 8
Procedure: as §1, §2, §4

[25] = test system: LN-229; assay: CellTiter-Glo cell proliferation assay, LN-229; format: cell-based; details: Homo sapiens, LN-229; Table 11; read-out: Absolute IC50 (μM) LN-229
Procedure: as §1, §2, §3

[26] = molecular target: T1, CRM1 (Homo sapiens, UniProt O14980); assay: PD effects by IHC in U87MG-luc orthotopic model, CRM1; format: in vivo, mice; details: orally three times a week for 2 weeks; vs vehicle control
T1 construct: from tissue; host or cells: U87MG-luc orthotopic xenograft tumours in mouse brain
Procedure: as §5

[27] = 10 mg/kg, plasma, 10 mpk, read-out: Cmax (ng/ml) plasma/10 mpk

Sequence of XPO1 (O14980 whole entry): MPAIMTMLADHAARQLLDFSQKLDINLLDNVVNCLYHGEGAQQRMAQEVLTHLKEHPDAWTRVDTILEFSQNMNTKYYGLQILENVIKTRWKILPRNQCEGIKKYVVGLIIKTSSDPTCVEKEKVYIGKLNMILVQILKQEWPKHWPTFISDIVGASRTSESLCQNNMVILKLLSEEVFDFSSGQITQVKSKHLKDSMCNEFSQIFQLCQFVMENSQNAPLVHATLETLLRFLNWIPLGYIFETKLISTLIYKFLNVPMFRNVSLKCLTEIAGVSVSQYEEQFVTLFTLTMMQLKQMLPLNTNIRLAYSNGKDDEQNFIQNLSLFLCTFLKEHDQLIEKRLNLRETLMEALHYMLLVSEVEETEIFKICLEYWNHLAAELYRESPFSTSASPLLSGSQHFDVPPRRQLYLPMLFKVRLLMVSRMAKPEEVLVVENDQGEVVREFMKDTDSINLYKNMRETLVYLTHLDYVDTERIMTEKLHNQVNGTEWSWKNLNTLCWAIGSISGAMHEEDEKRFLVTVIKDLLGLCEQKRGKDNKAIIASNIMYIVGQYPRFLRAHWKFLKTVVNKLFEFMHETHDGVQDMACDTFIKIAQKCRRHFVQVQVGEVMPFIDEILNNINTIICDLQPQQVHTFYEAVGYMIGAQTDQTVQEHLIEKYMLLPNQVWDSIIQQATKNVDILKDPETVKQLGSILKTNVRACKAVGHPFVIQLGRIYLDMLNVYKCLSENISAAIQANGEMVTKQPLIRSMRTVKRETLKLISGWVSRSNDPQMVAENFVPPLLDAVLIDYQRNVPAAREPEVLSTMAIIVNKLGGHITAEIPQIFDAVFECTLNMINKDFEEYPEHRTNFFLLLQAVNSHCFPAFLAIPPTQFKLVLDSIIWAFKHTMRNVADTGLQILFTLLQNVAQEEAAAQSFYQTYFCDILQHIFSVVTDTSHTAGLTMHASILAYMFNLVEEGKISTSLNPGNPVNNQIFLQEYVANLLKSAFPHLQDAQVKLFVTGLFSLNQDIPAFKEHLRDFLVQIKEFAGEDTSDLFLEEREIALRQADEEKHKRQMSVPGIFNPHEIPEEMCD
T1 sequence (O14980 whole entry): as above

Compound: NC(=O)/C(=C/n1cnc(-c2cc(C(F)(F)F)cc(S(F)(F)(F)(F)F)c2)n1)c1cncnc1 [Compound IV, (E)-3-(3-(3-(Pentafluorosulfaneyl)-5-(trifluoromethyl)phenyl)-1H-1,2,4-triazol-1-yl)-2-(pyrimidin-5-yl)acrylamide]
- IC50 ([1]; 72 h, U87MG, 72 hours, Table 1, read-out: Growth inhibition (IC50)): 194 nM
- IC50 [2]: 1750 nM
- Kp ([3]; brain/plasma, 5 mpk/AUC Ratio, read-out: B/P ratio): 0.29
- bioavailability ([3]; plasma, oral, mice or rats): 27%
- AUC ([3]; plasma, 10 mg/kg, 10 mpk): 1060 ng·h/mL
- half-life ([3]; plasma, mice or rats): 2.9 h
- Cmax ([3]; 5 mg/kg, 5 mpk, first number of Plasma/brain pair, read-out: Cmax/(ng/mL) Plasma): 276 ng/mL
- Cmax ([3]; 5 mg/kg, 5 mpk, second number of Plasma/brain pair, read-out: Cmax/(ng/mL) brain): 68.5 ng/mL
- Cmax [3, 27]: 312 ng/mL
- EC50 ([4]; REV-EGFP U2OS cells, 1 h, Table 2, read-out: Rev-GFP/EC50): 0.0148 µM
- IC50 ([4]; Table 10, first (or only) value of the cell): 14.8 nM
- EC50 ([4]; Table 13, read-out: Rev-GFP assay/μM): 0.015 µM
- IC50 [5]: 698 nM
- IC50 [6]: 1860 nM
- IC50 [7]: 124 nM
- IC50 [8]: 341 nM
- IC50 [9]: 110 nM
- IC50 [10]: 453 nM
- IC50 [11]: 306 nM
- IC50 [12]: 838 nM

Compound: O=C(/C=C\n1cnc(-c2cc(C(F)(F)F)cc(C(F)(F)F)c2)n1)NNc1cnccn1 [KPT-330, (Z)-3-(3-(3,5-bis(trifluoromethyl)phenyl)-1H-1,2,4-triazol-1-yl)-N′-(pyrazin-2-yl)acrylohydrazide, reference compound]
- IC50 [13]: 0.8 µM
- IC50 ([14]; C8-B4): 1270 nM
- C8-B4 Max % inh [14]: 100%
- expression of Ki67 in tumors (IHC) [15]: significantly decreased
- IC50 ([1]; Table 6, read-out: U87MG IC50): 129 nM
- IC50 ([1]; Table 9, first value column, read-out: U87MG IC50): 520 nM
- IC50 ([1]; Table 9, second value column, read-out: U87MG IC50): 710 nM
- IC50 [16]: 1 µM
- AUC ([3]; plasma, 10 mg/kg, 10 mpk): 8420 ng·h/mL
- half-life ([3]; plasma, mice or rats): 1.7 h
- Cmax [3, 27]: 2520 ng/mL
- MTD [17]: 15 mg/kg
- EC50 [18]: 12600 nM
- Emax ([18]; U87MG): 398%
- IC50 [19]: > 50000 nM
- HCN2 Max % inh ([20]; Table 8): 99%
- IC50 ([20]; Table 8): 30700 nM
- IC50 ([20]; Table 9): 34200 nM
- IC50 [21]: 224 nM
- survival in MTD study [22]: all mice were dead, or anaesthetized for the weight lost up to 20%
- IC50 [23]: > 50000 nM
- IC50 ([24]; Homo sapiens, HCT-116): 2130 nM
- HCT116 Max % inh [24]: 98%
- IC50 [25]: 0.3 µM
- expression of CRM1 in tumors (IHC) [26]: significantly decreased
